According to patent US20250136577A1, “HETEROCYCLIC DERIVATIVES AS MALT1 INHIBITORS” (C4X Discovery Limited, priority 2022, published 2025):

Columns and labels:
[1] = target: FL hMALT1 enzyme (Homo sapiens (Human), UniProt Q9UDY8); experiment: MALT1 Protease Assay 2 (Assay 2), higher sensitivity, cleavage of fluorogenic tetrapeptide substrate; type: biochemical; details: FL hMALT1 1-10 nM, Ac-LVSR-AMC 100 μM, 0.7 M sodium citrate, 30 min preincubation, 60 min read
Method: MALT1 Protease Assay 2 (Assay 2)
(§1) MALT1 protease activity was assessed in vitro by measuring the cleavage of a fluorogenic tetrapeptide substrate.
For a higher sensitivity assay, commercially available FL hMALT1 enzyme (Abcam, 1-10 nM) was incubated with substrate (Ac-LVSR-AMC, 100 μM) in reaction buffer comprising 50 mM HEPES (pH7.0), 25 mM KCl, 0.1% (v/v) CHAPS, 1 mM TCEP and 0.7 M sodium citrate.
(§2) Test compounds dissolved in DMSO were dispensed into assay plates (384-well, black, shallow ProxiPlates). 7 μl enzyme solution was added and incubated at room temperature for 30 minutes to allow compound binding to occur. 2 μl substrate solution was then added and the fluorescence (excitation 360 nm, emission 460 nm) read every 15 minutes using a suitable plate reader. Final assay DMSO concentration was 1%. Linearity over 60 minutes was confirmed, and assay signal was calculated by subtracting raw counts at time 0 from those at 60 minutes. % inhibition was calculated for each well, using no enzyme for 100% inhibition controls and no compound for 0% inhibition controls. IC50 values were calculated using GraphPad Prism using a 4-parameter non-linear regression curve fit.

[2] = system: IL-2 release from stimulated Jurkat cells; experiment: Human IL-2 Release Phenotypic Assay (Assay 3); type: cell-based; details: Jurkat cells (clone E6-1), 200 ng/ml PMA + 300 ng/ml ionomycin, IL-2 in supernatant by ELISA
Method: Human IL-2 Release Phenotypic Assay (Assay 3)
This assay measured the inhibition by MALT1 inhibitors of the IL-2 release from stimulated Jurkat cells, a human immortalized T lymphocyte cell line. IL-2 production from Jurkat cells is regulated by activation of NFκB signalling, which is in turn regulated by MALT1 protease activity.
Jurkat cells (clone E6-1, ATCC) were cultured in RPMI1640 supplemented with 10% (v/v) FBS and 1% (v/v) penicillin/streptomycin (100× liquid stocks). Cells were seeded in 96-well white tissue culture-treated plates (Perkin Elmer) at 50 000 cells/well and incubated overnight at 37° C., 5% CO2. Test compounds in DMSO at half-log dilutions were added to the cells and incubated for 30 mins. Final DMSO concentration was 0.5%. Cells were then stimulated with 200 ng/ml PMA+300 ng/ml ionomycin and incubated for 48 hours. IL-2 present in the supernatant was then measured by ELISA according to the kit instructions (ELISA MAX Deluxe Set Human IL-2, BioLegend). % inhibition was calculated for each well, using 30 μM of the commercially available MALT1 inhibitor, MLT-748, for 100% inhibition controls and no compound for 0% inhibition controls. IC50 values were calculated using GraphPad Prism using 4-parameter non-linear regression curve fit.

[3] = target: MALT1-GS-Ub (6-His-hMALT-1 residues 339-715 fused to ubiquitin) (Homo sapiens (Human), UniProt Q9UDY8); experiment: MALT1 Protease Assay 1 (Assay 1), cleavage of fluorogenic tetrapeptide substrate; type: biochemical; details: MALT1-GS-Ub 300-600 nM, Ac-LVSR-AMC 100 μM, 30 min preincubation, 60 min read
Method: MALT1 Protease Assay 1 (Assay 1)
as §1
A protein (MALT1-GS-Ub) comprising 6-His-hMALT-1 (residues 339-715), fused to ubiquitin with an 8× GGS linker, was expressed in E. coli, and purified using chitin resin to remove contaminants followed by affinity chromatography purification and size-exclusion chromatography, according to standard protocols.
Briefly, MALT1-GS-Ub (300-600 nM) was incubated with substrate (Ac-LVSR-AMC, 100 μM) in reaction buffer comprising 50 mM HEPES (pH7.0), 25 mM KCl, 0.1% (v/v) CHAPS and 1 mM TCEP.
as §2

MALT1-GS-Ub (6-His-hMALT-1 residues 339-715 fused to ubiquitin), sequence (Q9UDY8 other isoform, or with tags, fused parts or gaps): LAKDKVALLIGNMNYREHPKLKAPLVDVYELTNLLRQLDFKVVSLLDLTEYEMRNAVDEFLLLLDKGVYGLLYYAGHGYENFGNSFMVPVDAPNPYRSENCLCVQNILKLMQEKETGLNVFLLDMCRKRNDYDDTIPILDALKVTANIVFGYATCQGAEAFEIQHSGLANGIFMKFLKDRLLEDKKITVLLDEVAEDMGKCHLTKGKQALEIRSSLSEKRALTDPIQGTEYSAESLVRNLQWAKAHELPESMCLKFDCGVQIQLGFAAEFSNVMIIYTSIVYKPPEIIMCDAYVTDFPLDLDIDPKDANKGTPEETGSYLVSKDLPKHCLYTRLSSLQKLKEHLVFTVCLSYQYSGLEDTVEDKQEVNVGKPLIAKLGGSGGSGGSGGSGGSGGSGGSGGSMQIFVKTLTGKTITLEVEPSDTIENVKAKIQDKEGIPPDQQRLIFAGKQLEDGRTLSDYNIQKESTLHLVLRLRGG
FL hMALT1 enzyme, sequence (Q9UDY8 whole entry): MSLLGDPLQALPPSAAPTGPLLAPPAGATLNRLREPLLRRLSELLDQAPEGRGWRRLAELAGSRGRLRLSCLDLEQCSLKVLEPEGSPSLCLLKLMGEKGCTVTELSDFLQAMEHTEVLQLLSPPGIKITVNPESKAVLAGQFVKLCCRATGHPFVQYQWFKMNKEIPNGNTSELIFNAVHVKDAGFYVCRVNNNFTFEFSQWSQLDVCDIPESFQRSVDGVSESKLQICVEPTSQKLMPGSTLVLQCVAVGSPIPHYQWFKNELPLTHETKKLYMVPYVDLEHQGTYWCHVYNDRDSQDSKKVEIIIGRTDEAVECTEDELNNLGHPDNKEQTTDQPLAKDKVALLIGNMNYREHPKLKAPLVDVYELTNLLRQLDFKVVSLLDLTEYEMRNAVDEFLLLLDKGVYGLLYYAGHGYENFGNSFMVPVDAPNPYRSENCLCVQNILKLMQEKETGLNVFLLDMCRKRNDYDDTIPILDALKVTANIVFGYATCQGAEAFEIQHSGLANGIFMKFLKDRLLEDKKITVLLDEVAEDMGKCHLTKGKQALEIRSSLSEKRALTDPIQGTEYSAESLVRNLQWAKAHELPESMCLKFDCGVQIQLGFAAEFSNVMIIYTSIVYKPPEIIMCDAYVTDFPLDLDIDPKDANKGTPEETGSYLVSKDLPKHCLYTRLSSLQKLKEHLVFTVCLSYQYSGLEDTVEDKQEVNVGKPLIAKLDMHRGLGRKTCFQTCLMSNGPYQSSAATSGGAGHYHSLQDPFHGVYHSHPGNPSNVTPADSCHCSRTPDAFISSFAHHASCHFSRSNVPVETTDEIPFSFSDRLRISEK

Compound	IC50 [1] [nM]	IC50 ([2]; 48 hours) [nM]	IC50 [3] [nM]	IC50 ([2]; Homo sapiens, Jurkat, 48 h) [nM]
CC(C)C1CN(C(=O)Nc2cnc(-n3nccn3)c(Cl)c2)c2cncc(Br)c2O1 (single isomer, unassigned) [Example 48, 8-Bromo-N-(5-chloro-6-(2H-1,2,3-triazol-2-yl)pyridin-3-yl)-2-isopropyl-2,3-dihydro-4H-pyrido[4,3-b][1,4]oxazine-4-carboxamide]	80	> 10000		
CC1CN(C(=O)Nc2cnc(-n3nccn3)c(Cl)c2)c2cncc(Br)c2O1 (stereo not drawn) [Example 30, 8-Bromo-N-(5-chloro-6-(2H-1,2,3-triazol-2-yl)pyridin-3-yl)-2-methyl-2,3-dihydro-4H-pyrido[4,3-b][1,4]oxazine-4-carboxamide]	1500		1500	420
C[C@@H]1CN(C(=O)Nc2cnc(-n3nccn3)c(Cl)c2)c2cncc(Br)c2N1C [Example 26, (R)-8-Bromo-N-(5-chloro-6-(2H-1,2,3-triazol-2-yl)pyridin-3-yl)-1.2-dimethyl-2,3-dihydropyrido[3,4-b]pyrazine-4 (1H)-carboxamide]	110		800	1300
CC(C)[C@@H]1CN(C(=O)Nc2cnc(-n3nccn3)c(Cl)c2)c2cncc(Br)c2N1C [Example 35, (R)-8-Bromo-N-(5-chloro-6-(2H-1,2,3-triazol-2-yl)pyridin-3-yl)-2-isopropyl-1-methyl-2,3-dihydropyrido[3,4-b]pyrazine-4 (1H)-carboxamide]	60		730	170
Cc1ncc2c(c1Br)OCCN2C(=O)Nc1cnc(-n2nccn2)c(Cl)c1 [Example 41, 8-Bromo-N-(5-chloro-6-(2H-1,2,3-triazol-2-yl)pyridin-3-yl)-7-methyl-2,3-dihydro-4H-pyrido[4,3-b][1,4]oxazine-4-carboxamide]	1400		3900	> 10000
Cc1ncc2c(c1C#N)OC(C(F)(F)F)CN2C(=O)Nc1cnc(-n2nccn2)c(Cl)c1 (single isomer, unassigned) [Example 53, N-(5-Chloro-6-(2H-1,2,3-triazol-2-yl)pyridin-3-yl)-8-cyano-7-methyl-2-(trifluoromethyl)-2,3-dihydro-4H-pyrido[4,3-b][1,4]oxazine-4-carboxamide]	60			390
Cc1ncc2c(c1Br)OC(C(F)(F)F)CN2C(=O)Nc1cnc(-n2nccn2)c(Cl)c1 (single isomer, unassigned) [Example 43, 8-Bromo-N-(5-chloro-6-(2H-1,2,3-triazol-2-yl)pyridin-3-yl)-7-methyl-2-(trifluoromethyl)-2,3-dihydro-4H-pyrido[4,3-b][1,4]oxazine-4-carboxamide]	60			1400
O=C(Nc1cnc(-n2nccn2)c(Cl)c1)N1CCOc2c(Br)cncc21 [Example 21, 8-Bromo-N-(5-chloro-6-(2H-1,2,3-triazol-2-yl)pyridin-3-yl)-2,3-dihydro-4H-pyrido[4,3-b][1,4]oxazine-4-carboxamide]	> 3000		2300	> 10000
CC(C)C1CN(C(=O)Nc2cnc(-n3nccn3)c(Cl)c2)c2cncc(Br)c2O1 (single isomer, unassigned) [Example 49, 8-Bromo-N-(5-chloro-6-(2H-1,2,3-triazol-2-yl)pyridin-3-yl)-2-isopropyl-2,3-dihydro-4H-pyrido[4,3-b][1,4]oxazine-4-carboxamide]	120	4460		
CC1(C)CN(C(=O)Nc2cnc(-n3nccn3)c(Cl)c2)c2cncc(Br)c2O1 [Example 19, 8-Bromo-N-(5-chloro-6-(2H-1,2,3-triazol-2-yl)pyridin-3-yl)-2,2-dimethyl-2,3-dihydro-4H-pyrido[4,3-b][1,4]oxazine-4-carboxamide]	150		730	1100
O=C(Nc1cnc(-n2nccn2)c(Cl)c1)N1CC(C(F)(F)F)Oc2c(Br)cncc21 (single isomer, unassigned) [Example 40, 8-Bromo-N-(5-chloro-6-(2H-1,2,3-triazol-2-yl)pyridin-3-yl)-2-(trifluoromethyl)-2,3-dihydro-4H-pyrido[4,3-b][1,4]oxazine-4-carboxamide]	60		340	300
CCC1CN(C(=O)Nc2cnc(-n3nccn3)c(Cl)c2)c2cncc(Br)c2O1 (single isomer, unassigned) [Example 46, 8-Bromo-N-(5-chloro-6-(2H-1,2,3-triazol-2-yl)pyridin-3-yl)-2-ethyl-2,3-dihydro-4H-pyrido[4,3-b][1,4]oxazine-4-carboxamide]	30	740		
Cc1ncc2c(c1C#N)OC(C(F)(F)F)CN2C(=O)Nc1cnc(OC(F)F)c(Cl)c1 (single isomer, unassigned) [Example 61, N-(5-Chloro-6-(difluoromethoxy)pyridin-3-yl)-8-cyano-7-methyl-2-(trifluoromethyl)-2,3-dihydro-4H-pyrido[4,3-b][1,4]oxazine-4-carboxamide]	21			286
N#Cc1cncc2c1OC(C(F)(F)F)CN2C(=O)Nc1cnc(-n2nccn2)c(Cl)c1 (single isomer, unassigned) [Example 55, N-(5-Chloro-6-(2H-1,2,3-triazol-2-yl)pyridin-3-yl)-8-cyano-2-(trifluoromethyl)-2,3-dihydro-4H-pyrido[4,3-b][1,4]oxazine-4-carboxamide]	60			350
CC1(C#N)CN(C(=O)Nc2cnc(-n3nccn3)c(Cl)c2)c2cccc(Br)c2O1 (stereo not drawn) [Example 18, 8-Bromo-N-(5-chloro-6-(2H-1,2,3-triazol-2-yl)pyridin-3-yl)-2-cyano-2-methyl-2,3-dihydro-4H-benzo[b][1,4]oxazine-4-carboxamide]	190		850	1900
CCC1CN(C(=O)Nc2cnc(-n3nccn3)c(Cl)c2)c2cncc(Br)c2O1 (single isomer, unassigned) [Example 47, 8-Bromo-N-(5-chloro-6-(2H-1,2,3-triazol-2-yl)pyridin-3-yl)-2-ethyl-2,3-dihydro-4H-pyrido[4,3-b][1,4]oxazine-4-carboxamide]	130	> 10000		
CC1(C)CN(C(=O)Nc2cnc(-n3nccn3)c(Cl)c2)c2cncc(Cl)c2O1 [Example 32, 8-Chloro-N-(5-chloro-6-(2H-1,2,3-triazol-2-yl)pyridin-3-yl)-2,2-dimethyl-2,3-dihydro-4H-pyrido[4,3-b][1,4]oxazine-4-carboxamide]	120		1800	1200
CC[C@@H]1CN(C(=O)Nc2cnc(-n3nccn3)c(Cl)c2)c2cncc(Br)c2N1C [Example 34, (R)-8-Bromo-N-(5-chloro-6-(2H-1,2,3-triazol-2-yl)pyridin-3-yl)-2-ethyl-1-methyl-2,3-dihydropyrido[3,4-b]pyrazine-4 (1H)-carboxamide]	50		970	290
CC1(C)CN(C(=O)Nc2cnc(-n3nccn3)c(C(F)(F)F)c2)c2cccc(Br)c2O1 [Example 23, N-(6-(2H-1,2,3-Triazol-2-yl)-5-(trifluoromethyl)pyridin-3-yl)-8-bromo-2,2-dimethyl-2,3-dihydro-4H-benzo[b][1,4]oxazine-4-carboxamide]	110		860	290
Nc1ncc2c(c1Br)OCCN2C(=O)Nc1cnc(-n2nccn2)c(Cl)c1 [Example 36, 7-Amino-8-bromo-N-(5-chloro-6-(2H-1,2,3-triazol-2-yl)pyridin-3-yl)-2,3-dihydro-4H-pyrido[4.3-b][1.4]oxazine-4-carboxamide]	2200			1700
